{"source": "patent US20190298745A1", "about": "“COMPOSITION FOR CONTROLLING SECRETION OF PROSTASOMES AND USE THEREOF” (Industrial Cooperation Foundation Chonbuk National, priority 2018, published 2019)", "key": {"[1]": {"test_system": "DU-145, human prostate cancer cell line", "experiment": "Intracellular calcium measurement (fluo-3, confocal microscopy)", "type": "cell-based", "conditions": "for continuous increase of [Ca2+]i by KCl treatment: pretreatment with antagonist before KCl, FIG. 2B-D", "protocol": "DU-145, human prostate cancer cell line, was pretreated with a regulator of intracellular calcium (Ca^2+) signaling second messenger, and the intracellular calcium signaling pattern thereof was analyzed. The concentration of intracellular calcium was measured by the following method: A cell suspension pretreated with a fluo-3 (molecular probe, USA) was titrated in a confocal dish (SPL, Seoul, Korea) coated with poly-L-lysine (Sigma-Aldrich, USA) and reacted for 20 minutes in a CO2 incubator to attach the cells. Then, the intracellular calcium amount was measured by a confocal microscopy system of Nikon Co, using the method of Tsien et al. (Tsien et al., Nature 295, 68-71 (1982)), and the results are illustrated in FIG. 2."}, "mouse sperms": {"test_system": "mouse sperms", "experiment": "Sperm motility test (CASA) of sperms fused with prostasomes from PPECs", "type": "cell-based", "conditions": "sperms fused with PPECs-derived prostasomes (with or without pretreatment of the prostate cells), vs no fusion; FIG. 5", "protocol": "The prostasomes of the mouse were obtained by incising the mouse abdominal cavity and obtaining the prostate under the bladder through microsurgery (Drost et al, 2016, Nat Protoc. 11(2): 347-358). Later, the effluent from the prostate gland was collected from the prostate and diluted using BWW (Bigger, Whitten, arid Whittingham) medium [10 mM Hepes, 20 mM sodium lactate, 5 mM glucose, 0.25 mM sodium pyruvate, penicillin G (80 mg/L), streptomycin sulfate (50 mg/L), 95 mM NaCl, 4.8 mM KCl, 1.3 mM CaCl2, 1.2 mM KH2PO4, and 1.2 mM MgSO4 in 25 mM NaHCO3 buffer, pH 7.4]). The supernatant was used to collect prostasomes by the same method as described above.\nTo collect mouse sperms which are not fused with prostasomes, the tail epididymis of a male mouse was surgically removed, and blood and adipose tissue were removed using ophthalmic scissors. The epididymis was punctured with a 30 gauge sterilized needle and pinched by tweezers to release a large number of sperms. […]\nSpecifically, the isolated sperms were diluted with a weak alkaline buffer with 0.32 M sucrose or binding buffer 150 mM NaCl, 1 mM CaCl2, 1 mM MgCl2, 5 mM glucose with 2 mM Hepes (pH 8.0)/20 mM MES (pH 5.0, binding buffer). […] The sperm motility rate was measured using a computer assisted sperm analysis (CASA) device (IVOS, Hamilton Thorne Biosciences, USA). […]"}, "[2]": {"test_system": "DU-145, human prostate cancer cell line", "experiment": "Western blotting of prostasome (exosomal) marker proteins in prostasomes from culture supernatant", "type": "cell-based", "protocol": "Specifically, the prostate cancer cell line DU-145 were cultured in DMEM (GIBCO/Invitrogen, USA) supplemented with 10% exosome-free FBS (GIBCO/Invitrogen, USA) and 1% antibiotics-antimycotic (GIBCO/Invitrogen, USA) under the conditions of 37° C. and 5% CO2. The cell culture was collected and centrifuged at 3,000 rpm for 30 minutes to separate the supernatant. The supernatant was centrifuged at 15,000×g for 20 minutes using a Beckman's high-speed centrifuge, and the supernatant was separated again. The supernatant was centrifuged at 105,000×g for 2 hours using a high-speed centrifuge to obtain a precipitate. The collected precipitate was resuspended in the same buffer. The first eluted fraction was collected using sephadex G-200 (Sigma, USA), centrifuged again, and then suspended for use. 20 μg of protein was inactivated in 5× sample buffer at 100° C. for 5 minutes and then electrophoresed on a 10% SDS polyacrylamide gel. The separated proteins were transferred to a PVDF membrane and blocked in 2% BSA for 90 minutes. The respective HSP70, β-actin, Rab5 and LAMP1 antibodies were placed overnight at 4° C. in a ratio of 1:1,000 and then washed three times for 10 minutes with tris-buffered saline Tween-20 (TBST) buffer. The secondary antibodies were diluted at a ratio of 1:1,000 and allowed to adhere at room temperature for 2 hours. The membranes washed three times for 15 minutes with TBST buffer were treated with ECL (Bio-Rad, USA), and the amount of the protein expression was measured with LAS-500 (GE Healthcare Life Science, USA). DU-145, prostate cancer cell line, was treated with KCl, which induces cell membrane depolarization. Western blotting was performed to identify changes in prostasome-related protein expression. Specifically, the cells were cultured with KCl at various concentrations (0, 5, 10, 25, 50 and 100 mM) for 1 hour, and prostasomes were prepared from the culture supernatant by the method described in Experimental Example 1 and subjected to Western blotting. Further, cells were cultured with 25 mM KCl for various times (0, 10, 30, 60, 120 and 180 minutes) and subjected to Western blotting. The results are illustrated in FIG. 1. Furthermore, DU-145, human prostate cancer cell line was pretreated with a regulator of intracellular calcium (Ca^2+) signaling second messenger to analyze the change in the prostasome-related protein expression. Specifically, DU-145 cells were treated with various antagonists (regulator of intracellular calcium signaling second messenger) such as 100 μg/ml heparin (selective IP3 receptor inhibitor), 50 μM 8-Br-cADPR (antagonist of cADPR) and 1 μM NED-19 (antagonist of NAADP) together with 25 mM KCl. Prostasomes were prepared from the culture supernatant by the method described in Experimental Example 1, and Western blotting was performed. All antagonists were preincubated for 30 minutes before KCl treatment, and the cells were cultured for an additional 1 hour after KCl treatment. The results are illustrated in FIG. 3. Capsaicin (Sigma Aldrich, Mo., USA), which induces intracellular calcium (Ca^2+) signaling, was used to confirm the change in prostasome-related protein expression according to capsaicin treatment in DU-145, human prostate cancer cell line by Western blot. Specifically, the cells were cultured with capsaicin at various concentrations (0, 12.5, 25, 50, 100 and 200 μM) for 3 hours, and prostasomes were prepared from the culture supernatant by the method described in Example 2 and subjected to Western blotting, The cells were also cultured with 50 μM capsaicin for various times (0, 10, 30, 60, […], 120 and 180 minutes) and subjected to Western blotting. The results are illustrated in FIG. 4."}, "mouse oocytes": {"test_system": "mouse oocytes", "experiment": "In vitro fertilization test", "type": "cell-based", "conditions": "sperms fused with prostasomes obtained with or without pretreatment by regulator, reacted with oocytes, 36 hours; FIG. 6", "protocol": "In order to perform the in vitro fertilization test, the method of Ren et al. (Ren et al., Nature 413, 603-609 (2001)) was modified and used. A 10 to 12-week-old female mouse was injected with pregnant mare serum gonadotropin (PMSG) (5 IU; Sigma-Aldrich). After 48 hours, the mouse was injected with human chorionic gonadotropin (hCG) (5 IU; Sigma-Aldrich). After 14 hours of the last injection, uterine tubes were removed and perfused with IVF medium (Medicult, USA), and flown oocytes were collected using a low magnification microscope.\nThe collected oocytes were resuspended in IVF medium and were cultured with prostasomes which were obtained in the presence or absence of the regulator of the intracellular calcium signaling second messenger, causing fertilization reaction. The heated mineral oil was overlaid on top of the medium to block the outside air. After 36 hours of the culture, the total number of oocytes contained in the culture medium was counted under a microscope, and cells above the two-cell stage were counted. The fertilization rate was calculated using the following formula. The case that the sperms that had undergone the same fusion process without prostasome treatment were cultured with about 15 oocytes was referred to as 100%. The results are illustrated in FIG. 6. […]"}, "C57BL/6 mice": {"test_system": "C57BL/6 mice", "experiment": "In vivo fertilization test in mice (number of pups)", "design": "species or system mouse", "conditions": "male C57BL/6 mice, 50 mg/kg intraperitoneally twice daily for 2 weeks, then mating 1:1 for 48 hours; FIG. 7", "protocol": "The number of pups was measured in the mouse breeding process to confirm the increase of reproductive ability due to the promotion of the prostasome secretion (Nambu University's animal test approval number #201604), 7-week-old male C57BL/6 mice were randomly assigned into three groups and adapted to the breeding conditions. The groups were divided into the normal untreated group, the solvent-[…] group, and the capsaicin-treated group. Capsaicin was prepared at a high concentration (100-fold) in DMSO, then diluted in phosphate buffered saline (PBS, pH 7.2), and used as an injection. In the solvent-treated group, PBS (200 μl) diluted with the same volume of DMSO was administered. Twice daily capsaicin (50 mg/kg) and placebo were intraperitoneally injected into each experimental group for 2 weeks. Then, each mouse was caged with a female c57BL/6 mouse adapted for the same breeding condition, mating them at a ratio of 1:1 for 48 hours. The mating started at 6 pm, and the mating success was evaluated by confirming that the plaque was formed at the vaginal entrance at 9:00 am, but it was maintained for 48 hours considering the possibility of premature dropping. Then, only the female was separated from each cage, and the separate breeding was performed for each group. After the gestation period (about 21 days), the number of pups was counted. […]"}}, "note": "Entries after “also recorded” stand apart in the source; their conditions may differ."}
{"compound": "N=c1c2nc(Br)n3c2ncn1C1OC(COP(=O)(O)OP(=O)(O)OCC2OC3C(O)C2O)C(O)C1O", "note": "(centres unmarked) [8-br-cADPR, 8-Br-cADPR]", "values": [{"measurement": "continuous increase of [Ca2+]i by KCl treatment", "setting": "[1]", "value": "suppressed"}]}
{"compound": "O=P(O)(O)O[C@@H]1[C@H](O)[C@H](O)[C@@H](OP(=O)(O)O)[C@H](OP(=O)(O)O)[C@H]1O", "note": "[D-myo-IP3, D-myo-Inositol 1,4,5-triphosphate]", "values": [{"measurement": "sperm motility rate", "setting": "mouse sperms", "value": "doubling; also recorded: doubled"}]}
{"compound": "[Cl-].[K+]", "note": "[KCl]", "values": [{"measurement": "intracellular calcium ([Ca2+])", "setting": "[1]; 120 μM KCl, FIG. 2A", "value": "rapidly increased"}, {"measurement": "HSP70 expression", "setting": "[2]; 25 mM KCl alone without an antagonist, 1 hour, FIG. 3", "value": "increased"}, {"measurement": "protein expression of HSP70 and LAMP1", "setting": "[2]; 25 mM KCl for 0, 10, 30, 60, 120 and 180 minutes, FIG. 1B", "value": "increased in a time-dependent manner"}, {"measurement": "protein expression of HSP70, Rab5 and LAMP1 (exosomal markers)", "setting": "[2]; KCl 0, 5, 10, 25, 50 and 100 mM for 1 hour, FIG. 1A", "value": "increased in a concentration-dependent manner"}]}
{"compound": "COc1ccc([C@H]2N[C@H](C(=O)O)Cc3c2[nH]c2ccccc32)cc1CN1CCN(c2ccccc2F)CC1", "note": "[Ned-19]", "values": [{"measurement": "continuous increase of [Ca2+]i by KCl treatment", "setting": "[1]", "value": "not suppressed"}, {"measurement": "HSP70 expression (KCl-induced) with antagonist", "setting": "[2]; 100 μg/ml heparin, 50 μM 8-Br-cADPR or 1 μM NED-19 preincubated 30 minutes, then 25 mM KCl 1 hour, FIG. 3", "value": "did not show the inhibitory effect"}]}
{"compound": "C1CCC[C@H]2CCCN3CC[C@@H](CCCCCC[C@@H]4CCCN5CC[C@@H](CC1)O[C@@H]45)O[C@@H]23", "note": "[Xestospongin C]", "values": [{"measurement": "continuous increase of [Ca2+]i by KCl treatment", "setting": "[1]", "value": "suppressed"}, {"measurement": "fertility (fertilization rate)", "setting": "mouse oocytes", "value": "reduced to be similar to that of the negative control"}]}
{"compound": "COc1cc(CNC(=O)CCCC/C=C/C(C)C)ccc1O", "note": "[capsaicin]", "values": [{"measurement": "number of pups", "setting": "C57BL/6 mice", "value": "increased"}, {"measurement": "protein expression of HSP70, LAMP1 and Rab5", "setting": "[2]; 50 μM capsaicin for 0-180 minutes, FIG. 4B", "value": "increased in a time-dependent manner"}, {"measurement": "protein expression of HSP70", "setting": "[2]; capsaicin 0, 12.5, 25, 50, 100 and 200 μM for 3 hours, FIG. 4A", "value": "increased in a concentration-dependent manner"}]}
{"compound": "heparin", "values": [{"measurement": "fertility (fertilization rate)", "setting": "mouse oocytes", "value": "reduced to be similar to that of the negative control"}]}
